Measurements reported in ChEMBL document CHEMBL3132823, “Novel radioiodinated 1,3,4-oxadiazole derivatives with improved in vivo properties for SPECT imaging of -amyloid plaques” (Medchemcomm, 2014).
Each block holds one compound with its values, some of them ahead of it. Active and inactive are the calls of the source. The calls are words filed in the database; no cut-off is given here.

Columns and labels:
Brain [1] = assay: Biodistribution in iv dosed ddY mouse brain measured per gram of tissue after 60 mins by automatic gamma counting; type: ADME, organism-based; conditions: in vivo, 1 h
Stomach [2] = assay: Biodistribution in iv dosed ddY mouse stomach measured per organ after 60 mins by automatic gamma counting; type: ADME, organism-based; conditions: in vivo, 1 h
Heart [3] = assay: Biodistribution in iv dosed ddY mouse heart measured per gram of tissue after 60 mins by automatic gamma counting; type: ADME, organism-based; conditions: in vivo, 1 h
Pancreas [4] = assay: Biodistribution in iv dosed ddY mouse pancreas measured per gram of tissue after 60 mins by automatic gamma counting; type: ADME, organism-based; conditions: in vivo, 1 h
Blood [5] = assay: Biodistribution in iv dosed ddY mouse blood measured per gram of tissue after 2 mins by automatic gamma counting; type: ADME, organism-based; conditions: in vivo
Liver [6] = assay: Biodistribution in iv dosed ddY mouse liver measured per gram of tissue after 2 mins by automatic gamma counting; type: ADME, organism-based; conditions: in vivo
Kidney [7] = assay: Biodistribution in iv dosed ddY mouse kidney measured per gram of tissue after 2 mins by automatic gamma counting; type: ADME, organism-based; conditions: in vivo
Intestine [8] = assay: Biodistribution in iv dosed ddY mouse intestine measured per gram of tissue after 2 mins by automatic gamma counting; type: ADME, organism-based; conditions: in vivo
Spleen [9] = assay: Biodistribution in iv dosed ddY mouse spleen measured per gram of tissue after 2 mins by automatic gamma counting; type: ADME, organism-based; conditions: in vivo
Pancreas [10] = assay: Biodistribution in iv dosed ddY mouse pancreas measured per gram of tissue after 2 mins by automatic gamma counting; type: ADME, organism-based; conditions: in vivo
Heart [11] = assay: Biodistribution in iv dosed ddY mouse heart measured per gram of tissue after 2 mins by automatic gamma counting; type: ADME, organism-based; conditions: in vivo
Stomach [12] = assay: Biodistribution in iv dosed ddY mouse stomach measured per organ after 2 mins by automatic gamma counting; type: ADME, organism-based; conditions: in vivo
Brain [13] = assay: Biodistribution in iv dosed ddY mouse brain measured per gram of tissue after 2 mins by automatic gamma counting; type: ADME, organism-based; conditions: in vivo
Blood [14] = assay: Biodistribution in iv dosed ddY mouse blood measured per gram of tissue after 10 mins by automatic gamma counting; type: ADME, organism-based; conditions: in vivo
Liver [15] = assay: Biodistribution in iv dosed ddY mouse liver measured per gram of tissue after 10 mins by automatic gamma counting; type: ADME, organism-based; conditions: in vivo
Kidney [16] = assay: Biodistribution in iv dosed ddY mouse kidney measured per gram of tissue after 10 mins by automatic gamma counting; type: ADME, organism-based; conditions: in vivo
Intestine [17] = assay: Biodistribution in iv dosed ddY mouse intestine measured per gram of tissue after 10 mins by automatic gamma counting; type: ADME, organism-based; conditions: in vivo
Spleen [18] = assay: Biodistribution in iv dosed ddY mouse spleen measured per gram of tissue after 10 mins by automatic gamma counting; type: ADME, organism-based; conditions: in vivo
Pancreas [19] = assay: Biodistribution in iv dosed ddY mouse pancreas measured per gram of tissue after 10 mins by automatic gamma counting; type: ADME, organism-based; conditions: in vivo
Heart [20] = assay: Biodistribution in iv dosed ddY mouse heart measured per gram of tissue after 10 mins by automatic gamma counting; type: ADME, organism-based; conditions: in vivo
Stomach [21] = assay: Biodistribution in iv dosed ddY mouse stomach measured per organ after 10 mins by automatic gamma counting; type: ADME, organism-based; conditions: in vivo
Brain [22] = assay: Biodistribution in iv dosed ddY mouse brain measured per gram of tissue after 10 mins by automatic gamma counting; type: ADME, organism-based; conditions: in vivo
Blood [23] = assay: Biodistribution in iv dosed ddY mouse blood measured per gram of tissue after 30 mins by automatic gamma counting; type: ADME, organism-based; conditions: in vivo, 0.5 h
Liver [24] = assay: Biodistribution in iv dosed ddY mouse liver measured per gram of tissue after 30 mins by automatic gamma counting; type: ADME, organism-based; conditions: in vivo, 0.5 h
Kidney [25] = assay: Biodistribution in iv dosed ddY mouse kidney measured per gram of tissue after 30 mins by automatic gamma counting; type: ADME, organism-based; conditions: in vivo, 0.5 h
Intestine [26] = assay: Biodistribution in iv dosed ddY mouse intestine measured per gram of tissue after 30 mins by automatic gamma counting; type: ADME, organism-based; conditions: in vivo, 0.5 h
Spleen [27] = assay: Biodistribution in iv dosed ddY mouse spleen measured per gram of tissue after 30 mins by automatic gamma counting; type: ADME, organism-based; conditions: in vivo, 0.5 h
Pancreas [28] = assay: Biodistribution in iv dosed ddY mouse pancreas measured per gram of tissue after 30 mins by automatic gamma counting; type: ADME, organism-based; conditions: in vivo, 0.5 h
Heart [29] = assay: Biodistribution in iv dosed ddY mouse heart measured per gram of tissue after 30 mins by automatic gamma counting; type: ADME, organism-based; conditions: in vivo, 0.5 h
Stomach [30] = assay: Biodistribution in iv dosed ddY mouse stomach measured per organ after 30 mins by automatic gamma counting; type: ADME, organism-based; conditions: in vivo, 0.5 h
Brain [31] = assay: Biodistribution in iv dosed ddY mouse brain measured per gram of tissue after 30 mins by automatic gamma counting; type: ADME, organism-based; conditions: in vivo, 0.5 h
Blood [32] = assay: Biodistribution in iv dosed ddY mouse blood measured per gram of tissue after 60 mins by automatic gamma counting; type: ADME, organism-based; conditions: in vivo, 1 h
Liver [33] = assay: Biodistribution in iv dosed ddY mouse liver measured per gram of tissue after 60 mins by automatic gamma counting; type: ADME, organism-based; conditions: in vivo, 1 h
Kidney [34] = assay: Biodistribution in iv dosed ddY mouse kidney measured per gram of tissue after 60 mins by automatic gamma counting; type: ADME, organism-based; conditions: in vivo, 1 h
Intestine [35] = assay: Biodistribution in iv dosed ddY mouse intestine measured per gram of tissue after 60 mins by automatic gamma counting; type: ADME, organism-based; conditions: in vivo, 1 h
Spleen [36] = assay: Biodistribution in iv dosed ddY mouse spleen measured per gram of tissue after 60 mins by automatic gamma counting; type: ADME, organism-based; conditions: in vivo, 1 h
Plasma = assay: Metabolic stability in mouse plasma at 11 kBq after 1 hr at 37 degC by HPLC analysis; type: ADME, cell-free
[37] = biological target: T1, Amyloid-beta precursor protein (Homo sapiens, UniProt P05067); assay: Inhibition of [125I]IMPY binding to amyloid beta (1 to 42) aggregates (unknown origin) by gamma counting
T1 sequence (P05067 whole entry): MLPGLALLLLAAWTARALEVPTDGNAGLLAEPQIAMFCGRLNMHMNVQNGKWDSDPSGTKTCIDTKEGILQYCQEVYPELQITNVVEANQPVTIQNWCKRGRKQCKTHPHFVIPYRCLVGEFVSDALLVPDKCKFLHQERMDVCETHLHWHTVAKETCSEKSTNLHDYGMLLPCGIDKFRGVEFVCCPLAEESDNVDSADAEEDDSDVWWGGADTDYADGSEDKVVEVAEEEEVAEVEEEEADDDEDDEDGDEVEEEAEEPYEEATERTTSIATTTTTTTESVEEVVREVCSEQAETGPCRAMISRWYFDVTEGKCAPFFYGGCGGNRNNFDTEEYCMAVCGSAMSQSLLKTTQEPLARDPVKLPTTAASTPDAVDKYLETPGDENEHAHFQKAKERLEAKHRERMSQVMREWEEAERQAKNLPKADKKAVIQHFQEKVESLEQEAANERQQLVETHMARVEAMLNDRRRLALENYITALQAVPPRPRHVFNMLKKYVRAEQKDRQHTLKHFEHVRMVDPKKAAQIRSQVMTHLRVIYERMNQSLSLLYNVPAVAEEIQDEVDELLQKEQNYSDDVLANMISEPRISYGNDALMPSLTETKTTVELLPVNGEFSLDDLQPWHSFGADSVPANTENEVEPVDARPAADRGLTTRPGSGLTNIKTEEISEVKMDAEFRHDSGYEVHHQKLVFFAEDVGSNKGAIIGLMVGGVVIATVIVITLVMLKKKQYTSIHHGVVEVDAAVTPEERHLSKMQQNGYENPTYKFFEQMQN

Mus musculus [38] = assay: In vivo binding affinity to amyloid beta plaques in iv dosed wild type mouse brain after 70 mins by autoradiography analysis; type: functional, organism-based; conditions: tested as the 125I-labelled form
Mus musculus [39] = assay: In vivo binding affinity to amyloid beta plaques in iv dosed Tg2576 transgenic mouse brain after 70 mins by autoradiography analysis; type: functional, organism-based; conditions: tested as the 125I-labelled form
[40] = Octanol-phosphate buffer partition coefficient, log p of the compound at pH 7.4 by automatic gamma counting; type: physicochemical
[41] = biological target: T1, Amyloid-beta precursor protein; assay: In vitro binding affinity to amyloid beta plaques in human AD brain at 148 kBq after 1 hr incubation at room temperature by autoradiography analysis; conditions: tested as the 125I-labelled form
Mus musculus [42] = assay: In vivo binding affinity to amyloid beta plaques in iv dosed wild type mouse brain at 44 to 48 MBq after 20 to 80 mins by SPECT study; type: functional, organism-based; conditions: 44 to 48 M, tested as the 125I-labelled form
Mus musculus [43] = assay: In vivo binding affinity to amyloid beta plaques in iv dosed Tg2576 transgenic mouse brain at 44 to 48 MBq after 20 to 80 mins by SPECT study; type: functional, organism-based; conditions: 44 to 48 M, tested as the 125I-labelled form

Drug uptake (Brain [1]): 0.4 %ID
Drug uptake (Stomach [2]): 10.24 %ID
Drug uptake (Heart [3]): 1.13 %ID
Drug uptake (Pancreas [4]): 1.27 %ID
Drug uptake (Blood [5]): 1.93 %ID
Drug uptake (Liver [6]): 6.41 %ID
Drug uptake (Kidney [7]): 6.43 %ID
Drug uptake (Intestine [8]): 1.5 %ID
Drug uptake (Spleen [9]): 2.97 %ID
Drug uptake (Pancreas [10]): 4.92 %ID
Drug uptake (Heart [11]): 4.48 %ID
Drug uptake (Stomach [12]): 0.91 %ID
Drug uptake (Brain [13]): 3.88 %ID
Drug uptake (Blood [14]): 2.33 %ID
Drug uptake (Liver [15]): 7.44 %ID
Drug uptake (Kidney [16]): 4.61 %ID
Drug uptake (Intestine [17]): 3.38 %ID
Drug uptake (Spleen [18]): 3.01 %ID
Drug uptake (Pancreas [19]): 3.07 %ID
Drug uptake (Heart [20]): 2.15 %ID
Drug uptake (Stomach [21]): 2.49 %ID
Drug uptake (Brain [22]): 3.03 %ID
Drug uptake (Blood [23]): 1.97 %ID
Drug uptake (Liver [24]): 3.86 %ID
Drug uptake (Kidney [25]): 2.96 %ID
Drug uptake (Intestine [26]): 5.29 %ID
Drug uptake (Spleen [27]): 1.72 %ID
Drug uptake (Pancreas [28]): 1.67 %ID
Drug uptake (Heart [29]): 1.31 %ID
Drug uptake (Stomach [30]): 7.25 %ID
Drug uptake (Brain [31]): 1.05 %ID
Drug uptake (Blood [32]): 1.79 %ID
Drug uptake (Liver [33]): 2.61 %ID
Drug uptake (Kidney [34]): 2.99 %ID
Drug uptake (Intestine [35]): 8.57 %ID
Drug uptake (Spleen [36]): 1.74 %ID
Stability (Plasma): Stable
SMILES: CN(C)c1ccc(-c2nnc(-c3ccc([125I])cc3)o2)cn1

logD [40]: 2.06
Ki [37]: 0.0248 µM
inhibition [37]: Dose-dependent effect
Activity [41]: Active
SMILES: CN(C)c1ccc(-c2nnc(-c3ccc(I)cc3)o2)cn1
Activity (Mus musculus [38]): inactive
Activity (Mus musculus [39]): Active

The remaining lines, values behind:

SMILES: CN(C)c1ccc(-c2nnc(-c3ccc(I)cc3)o2)cc1
Ki [37]: 0.00391 µM

SMILES: CN(C)c1ccc(-c2nnc(-c3cccc(I)c3)o2)cn1
Activity (Mus musculus [42]): inactive
Activity (Mus musculus [43]): Active
Activity (Mus musculus [38]): inactive
Activity (Mus musculus [39]): Active
logD [40]: 2.06
Ki [37]: 0.0136 µM
inhibition [37]: Dose-dependent effect
Activity [41]: Active

SMILES: CN(C)c1ccc(-c2nnc(-c3cccc([125I])c3)o2)cn1
Drug uptake (Brain [1]): 0.48 %ID
Drug uptake (Stomach [2]): 7.9 %ID
Drug uptake (Heart [3]): 1.14 %ID
Drug uptake (Pancreas [4]): 1.28 %ID
Drug uptake (Blood [5]): 1.82 %ID
Drug uptake (Liver [6]): 6.06 %ID
Drug uptake (Kidney [7]): 8.85 %ID
Drug uptake (Intestine [8]): 2.28 %ID
Drug uptake (Spleen [9]): 2.67 %ID
Drug uptake (Pancreas [10]): 5.15 %ID
Drug uptake (Heart [11]): 5.76 %ID
Drug uptake (Stomach [12]): 0.86 %ID
Drug uptake (Brain [13]): 4.12 %ID
Drug uptake (Blood [14]): 1.65 %ID
Drug uptake (Liver [15]): 11.5 %ID
Drug uptake (Kidney [16]): 4.59 %ID
Drug uptake (Intestine [17]): 4.08 %ID
Drug uptake (Spleen [18]): 1.74 %ID
Drug uptake (Pancreas [19]): 2.46 %ID
Drug uptake (Heart [20]): 2.39 %ID
Drug uptake (Stomach [21]): 2.01 %ID
Drug uptake (Brain [22]): 2.63 %ID
Drug uptake (Blood [23]): 1.67 %ID
Drug uptake (Liver [24]): 8.42 %ID
Drug uptake (Kidney [25]): 2.95 %ID
Drug uptake (Intestine [26]): 8.77 %ID
Drug uptake (Spleen [27]): 1.39 %ID
Drug uptake (Pancreas [28]): 1.56 %ID
Drug uptake (Heart [29]): 1.27 %ID
Drug uptake (Stomach [30]): 5.67 %ID
Drug uptake (Brain [31]): 0.87 %ID
Drug uptake (Blood [32]): 1.76 %ID
Drug uptake (Liver [33]): 5.94 %ID
Drug uptake (Kidney [34]): 2.3 %ID
Drug uptake (Intestine [35]): 12.08 %ID
Drug uptake (Spleen [36]): 1.21 %ID
Stability (Plasma): Stable
